# In US12209081B2 (Katholieke Universiteit Leuven, priority 2020, dated 2025):
# Biological target: mouse TRPM3α2 (mTRPM3) ion channel (Mus musculus (Mouse), UniProt J9SQF3)
# Test: TRPM3 ion channel driven Ca2+ uptake, Fluo-4 AM assay, mTRPM3alpha2 overexpressing flip-in HEK293 cells stimulated with pregnenolone sulfate
# Type: cell-based
# Conditions: PS (50 μM) stimulated, cpds. 500-599
# Procedure, shortened: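 Flip-in HEK293 cells loaded with Fluo-4 AM were added to plates holding compound plus 50 μM pregnenolone sulfate in Ca2+-containing Krebs buffer. Fluorescence (ex 485/em 535 nm) read directly after cell addition; % inhibition relative to PS-stimulated vehicle and positive-control inhibitor.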
# Sequence of mouse TRPM3α2 (mTRPM3) ion channel (J9SQF3 other isoform, or with tags, fused parts or gaps): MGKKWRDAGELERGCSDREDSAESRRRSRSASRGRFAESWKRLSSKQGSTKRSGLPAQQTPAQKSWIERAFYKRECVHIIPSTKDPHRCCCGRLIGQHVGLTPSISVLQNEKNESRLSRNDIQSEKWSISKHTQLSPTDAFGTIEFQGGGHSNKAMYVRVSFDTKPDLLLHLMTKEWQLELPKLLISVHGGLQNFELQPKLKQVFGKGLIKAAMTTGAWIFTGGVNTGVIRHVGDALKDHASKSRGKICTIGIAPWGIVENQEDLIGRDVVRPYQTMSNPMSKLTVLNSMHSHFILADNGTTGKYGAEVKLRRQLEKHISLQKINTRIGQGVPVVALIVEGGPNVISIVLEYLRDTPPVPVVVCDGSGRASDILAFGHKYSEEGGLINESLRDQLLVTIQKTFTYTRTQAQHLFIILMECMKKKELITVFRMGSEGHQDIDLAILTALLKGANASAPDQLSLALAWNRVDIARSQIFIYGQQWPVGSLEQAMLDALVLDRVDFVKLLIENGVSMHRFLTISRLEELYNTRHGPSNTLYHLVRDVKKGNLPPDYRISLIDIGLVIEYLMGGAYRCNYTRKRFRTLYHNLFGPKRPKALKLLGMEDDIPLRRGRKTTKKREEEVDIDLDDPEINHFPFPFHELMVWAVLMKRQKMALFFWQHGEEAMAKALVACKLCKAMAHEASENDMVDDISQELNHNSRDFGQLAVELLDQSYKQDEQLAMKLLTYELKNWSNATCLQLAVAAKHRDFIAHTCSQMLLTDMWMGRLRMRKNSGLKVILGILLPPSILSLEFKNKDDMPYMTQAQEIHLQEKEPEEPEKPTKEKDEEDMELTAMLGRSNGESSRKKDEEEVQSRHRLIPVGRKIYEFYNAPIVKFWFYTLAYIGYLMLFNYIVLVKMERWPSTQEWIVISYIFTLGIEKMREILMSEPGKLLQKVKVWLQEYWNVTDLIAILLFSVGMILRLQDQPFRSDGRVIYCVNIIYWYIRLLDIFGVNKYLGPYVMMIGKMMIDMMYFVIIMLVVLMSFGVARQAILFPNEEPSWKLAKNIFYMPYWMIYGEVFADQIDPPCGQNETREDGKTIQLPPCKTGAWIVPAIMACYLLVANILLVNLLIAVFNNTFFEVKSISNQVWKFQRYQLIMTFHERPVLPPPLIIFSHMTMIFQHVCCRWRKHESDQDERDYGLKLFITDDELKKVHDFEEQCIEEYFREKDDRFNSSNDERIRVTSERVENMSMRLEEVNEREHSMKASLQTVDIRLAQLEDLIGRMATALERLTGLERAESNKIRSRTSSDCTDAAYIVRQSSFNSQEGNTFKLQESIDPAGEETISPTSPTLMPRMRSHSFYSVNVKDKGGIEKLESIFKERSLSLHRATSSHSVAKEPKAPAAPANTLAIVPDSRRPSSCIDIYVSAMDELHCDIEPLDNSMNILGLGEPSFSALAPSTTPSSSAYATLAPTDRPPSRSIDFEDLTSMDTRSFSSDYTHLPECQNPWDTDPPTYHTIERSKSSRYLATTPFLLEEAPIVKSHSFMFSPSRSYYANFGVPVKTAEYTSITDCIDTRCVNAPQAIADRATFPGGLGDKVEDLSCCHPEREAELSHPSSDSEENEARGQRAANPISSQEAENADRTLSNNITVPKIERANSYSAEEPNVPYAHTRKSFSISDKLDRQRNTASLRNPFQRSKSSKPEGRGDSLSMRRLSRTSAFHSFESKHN
row,IC50 [µM],Compound
1,< 1,"Cc1oc2ccc(OCc3ccccn3)cc2c1C(=O)NC1(C(N)=O)COC1 [compound 581, N-(3-carbamoyloxetan-3-yl)-2-methyl-5-(pyridin-2-ylmethoxy)benzofuran-3-carboxamide]"
2,< 1,"Cc1oc2ccc(OCc3nccs3)cc2c1C(=O)NC1(C(N)=O)COC1 [compound 582, N-(3-carbamoyloxetan-3-yl)-2-methyl-5-(thiazol-2-ylmethoxy)benzofuran-3-carboxamide]"
3,< 1,"Cc1ncsc1COc1ccc2oc(C)c(C(=O)NC3(C(N)=O)COC3)c2c1F [compound 583, N-(3-carbamoyloxetan-3-yl)-4-fluoro-2-methyl-5-((4-methylthiazol-5-yl)methoxy)benzofuran-3-carboxamide]"
4,< 1,"Cc1oc2ccc(OCc3cccnc3C(F)F)cc2c1C(=O)NC1(C(N)=O)COC1 [compound 584, N-(3-carbamoyloxetan-3-yl)-5-((2-(difluoromethyl)pyridin-3-yl)methoxy)-2-methylbenzofuran-3-carboxamide]"
5,< 1,"Cc1oc2ccc(OCc3cccnc3O)cc2c1C(=O)NC1(C(N)=O)COC1 [compound 585, N-(3-carbamoyloxetan-3-yl)-5-((2-hydroxypyridin-3-yl)methoxy)-2-methylbenzofuran-3-carboxamide]"
6,< 1,"COc1ncccc1COc1ccc2oc(C)c(C(=O)NC3(C(N)=O)COC3)c2c1 [compound 586, N-(3-carbamoyloxetan-3-yl)-5-((2-methoxypyridin-3-yl)methoxy)-2-methylbenzofuran-3-carboxamide]"
7,< 1,"Cc1ncsc1COc1cc2c(C(=O)NC3(C(N)=O)COC3)c(C)oc2cc1F [compound 587, N-(3-carbamoyloxetan-3-yl)-6-fluoro-2-methyl-5-((4-methylthiazol-5-yl)methoxy)benzofuran-3-carboxamide]"
8,< 1,"Cc1ncsc1COc1cc(F)c2oc(C)c(C(=O)NC3(C(N)=O)COC3)c2c1 [compound 588, N-(3-carbamoyloxetan-3-yl)-7-fluoro-2-methyl-5-((4-methylthiazol-5-yl)methoxy)benzofuran-3c-arboxamide]"
9,1 to 20,"Cc1ncsc1COc1ccc2oc(C)c(C(=O)N(C)C3(C(N)=O)COC3)c2c1 [compound 589, N-(3-carbamoyloxetan-3-yl)-N,2-dimethyl-5-((4-methylthiazol-5-yl)methoxy)benzofuran-3-carboxamide]"

# Same assay, conditions: PS (50 μM) stimulated, cpds. 608-666
row,Compound,IC50 [µM]
1,"Cc1ncsc1COc1ccc2oc(C)c(C(=O)NCC(C)(C)CO)c2c1 [compound 602, N-(3-hydroxy-2,2-dimethylpropyl)-2-methyl-5-((4-methylthiazol-5-yl)methoxy)benzofuran-3-carboxamide]",< 1
2,"Cc1oc2ccc(OCc3cn(C)nn3)cc2c1C(=O)NC1(CO)CCOCC1 [compound 604, N-(4-(hydroxymethyl)tetrahydro-2H-pyran-4-yl) -2-methyl-5-((1-methyl-1H-1,2,3-triazol-4-yl)methoxy)benzofuran-3-carboxamide]",> 20
3,"Cc1oc2ccc(OCc3cnnn3C)cc2c1C(=O)NC1(CO)CCOCC1 [compound 605, N-(4-(hydroxymethyl)tetrahydro-2H-pyran-4-yl)-2-methyl-5-((1-methyl-1H-1,2,3-triazol-5-yl)methoxy)benzofuran-3-carboxamide]",> 20
4,"Cc1oc2ccc(OCc3ccnn3C)cc2c1C(=O)NC1(CO)CCOCC1 [compound 608, N-(4-(hydroxymethyl)tetrahydro-2H-pyran-4-yl)-2-methyl-5-((1-methyl-1H-pyrazol-5-yl)methoxy)benzofuran-3-carboxamide]",< 1
5,"Cc1ncccc1COc1ccc2oc(C)c(C(=O)NC3(CO)CCOCC3)c2c1 [compound 611, N-(4-(hydroxymethyl)tetrahydro-2H-pyran-4-yl)-2-methyl-5-((2-methylpyridin-3-yl)methoxy)benzofuran-3-carboxamide]",< 1
6,"Cc1ncc(COc2ccc3oc(C)c(C(=O)NC4(CO)CCOCC4)c3c2)s1 [compound 613, N-(4-(hydroxymethyl)tetrahydro-2H-pyran-4-yl)-2-methyl-5-((2-methylthiazol-5-yl)methoxy)benzofuran-3-carboxamide]",< 1
7,"Cc1oc2ccc(OCc3ccc[nH]c3=O)cc2c1C(=O)NC1(CO)CCOCC1 [compound 614, N-(4-(hydroxymethyl)tetrahydro-2H-pyran-4-yl)-2-methyl-5-((2-oxo-1,2-dihydropyridin-3-yl)methoxy)benzofuran-3-carboxamide]",< 1
8,"Cc1oc2ccc(OCc3c[nH]nc3C(F)(F)F)cc2c1C(=O)NC1(CO)CCOCC1 [compound 615, N-(4-(hydroxymethyl)tetrahydro-2H-pyran-4-yl)-2-methyl-5-((3-(trifluoromethyl)-1H-pyrazol-4-yl)methoxy)benzofuran-3-carboxamide]",< 1
9,"Cc1cc(COc2ccc3oc(C)c(C(=O)NC4(CO)CCOCC4)c3c2)no1 [compound 618, N-(4-(hydroxymethyl)tetrahydro-2H-pyran-4-yl)-2-methyl-5-((5-methylisoxazol-3-yl)methoxy)benzofuran-3-carboxamide]",< 1

# Continued, values first:
row,IC50 [µM],Compound
1,< 1,"Cc1cnc(COc2ccc3oc(C)c(C(=O)NC4(CO)CCOCC4)c3c2)s1 [compound 620, N-(4-(hydroxymethyl)tetrahydro-2H-pyran-4-yl)-2-methyl-5-((5-methylthiazol-2-yl)methoxy)benzofuran-3-carboxamide]"
2,> 20,"Cc1ccc(COc2ccc3oc(C)c(C(=O)NC4(CO)CCOCC4)c3c2)nn1 [compound 621, N-(4-(hydroxymethyl)tetrahydro-2H-pyran-4-yl)-2-methyl-5-((6-methylpyridazin-3-yl)methoxy)benzofuran-3-carboxamide]"
3,< 1,"Cc1oc2ccc(OCc3cccnn3)cc2c1C(=O)NC1(CO)CCOCC1 [compound 624, N-(4-(hydroxymethyl)tetrahydro-2H-pyran-4-yl)-2-methyl-5-(pyridazin-3-ylmethoxy)benzofuran-3-carboxamide]"
4,< 1,"Cc1oc2ccc(OCc3cccnc3)cc2c1C(=O)NC1(CO)CCOCC1 [compound 625, N-(4-(hydroxymethyl)tetrahydro-2H-pyran-4-yl)-2-methyl-5-(pyridin-3-ylmethoxy)benzofuran-3-carboxamide]"
5,< 1,"Cc1oc2ccc(OCc3cncs3)cc2c1C(=O)NC1(CO)CCOCC1 [compound 627, N-(4-(hydroxymethyl)tetrahydro-2H-pyran-4-yl)-2-methyl-5-(thiazol-5-ylmethoxy)benzofuran-3-carboxamide]"
6,< 1,"COc1cc(COc2ccc3oc(C)c(C(=O)NC4(CO)CCOCC4)c3c2)ccn1 [compound 629, N-(4-(hydroxymethyl)tetrahydro-2H-pyran-4-yl)-5-((2-methoxypyridin-4-yl)methoxy)-2-methylbenzofuran-3-carboxamide]"
7,> 20,"Cc1oc2ccc(OCc3cccc(O)n3)cc2c1C(=O)NC1(CO)CCOCC1 [compound 630, N-(4-(hydroxymethyl)tetrahydro-2H-pyran-4-yl)-5-((6-hydroxypyridin-2-yl)methoxy)-2-methylbenzofuran-3-carboxamide]"
8,> 20,"Cc1oc2ccc(OCc3ccc(O)nc3)cc2c1C(=O)NC1(CO)CCOCC1 [compound 631, N-(4-(hydroxymethyl)tetrahydro-2H-pyran-4-yl)-5-((6-hydroxypyridin-3-yl)methoxy)-2-methylbenzofuran-3-carboxamide]"
9,< 1,"Cc1ncsc1COc1ccc2oc(C)c(C(=O)N(C)C3(CO)CCOCC3)c2c1 [compound 634, N-(4-(hydroxymethyl)tetrahydro-2H-pyran-4-yl)-N.2-dimethyl-5-((4-methylthiazol-5-yl)methoxy)benzofuran-3-carboxamide]"
10,< 1,"Cc1ncsc1COc1ccc2oc(C)c(C(=O)NC(C)(C)CC(N)=O)c2c1 [compound 649, N-(4-amino-2-methyl-4-oxobutan-2-yl)-2-methyl-5-((4-methylthiazol-5-yl)methoxy)benzofuran-3-carboxamide]"
11,< 1,"Cc1ncsc1COc1ccc2oc(C)c(C(=O)NC3(C(N)=O)CCOCC3)c2c1 [compound 650, N-(4-carbamoyltetrahydro-2H-pyran-4-yl)-2-methyl-5-((4-methylthiazol-5-yl)methoxy)benzofuran-3-carboxamide]"
12,< 1,"Cc1oc2ccc(OCc3cccnc3C(F)(F)F)cc2c1C(=O)NC(C)(C)CCO [compound 651, N-(4-hydroxy-2-methylbutan-2-yl)-2-methyl-5-((2-(trifluoromethyl)pyridin-3-yl)methoxy)benzofuran-3-carboxamide]"
13,< 1,"Cc1ncsc1COc1ccc2oc(C)c(C(=O)NC(C)(C)CCO)c2c1 [compound 652, N-(4-hydroxy-2-methylbutan-2-yl)-2-methyl-5-((4-methylthiazol-5-yl)methoxy)benzofuran-3-carboxamide]"
14,> 20,"Cc1ncsc1COc1ccc2oc(C(N)=O)c(C(=O)NC3(CO)CCOCC3)c2c1 [compound 658, N3-(4-(hydroxymethyl)tetrahydro-2H-pyran-4-yl)-5-((4-methylthiazol-5-yl)methoxy)benzofuran-2,3-dicarboxamide]"
15,> 20,"Cc1ncsc1COc1ccc2oc(C)c(C(=O)N(CCO)C3CCC3)c2c1 [compound 660, N-cyclobutyl-N-(2-hydroxyethyl)-2-methyl-5-((4-methylthiazol-5-yl)methoxy)benzofuran-3-carboxamide]"
16,< 1,"Cc1oc2ccc(OCc3cccnc3)cc2c1C(=O)NC(CO)C(N)=O (centres unmarked) [compound 662, N-(1-amino-3-hydroxy-1-oxopropan-2-yl)-2-methyl-5-(pyridin-3-ylmethoxy)benzofuran-3-carboxamide]"
17,< 1,"COc1ncccc1COc1ccc2oc(C)c(C(=O)NC3CNCC3(F)F)c2c1 (centres unmarked) [compound 663, N-(4,4-difluoropyrrolidin-3-yl)-5-((2-methoxypyridin-3-yl)methoxy)-2-methylbenzofuran-3-carboxamide]"
